# Laboratory results from patent US11427567B2, “Imidazolyl pyrimidinylamine compounds as CDK2 inhibitors” (Incyte Corporation, priority 2019, dated 2022).
# Target: CDK2/Cyclin E1 (Homo sapiens (Human), UniProt P24941)
# Test: CDK2/Cyclin E1 HTRF enzyme activity assay (Example A)
# Assay type: biochemical
# Conditions: 1 mM ATP
# Procedure: Assays were conducted in white 384-well polystyrene plates in a final reaction volume of 8 μL. […] HTRF signals were read after 1 hour at room temperature on a PHERAstar FS plate reader (BMG Labtech). Data was analyzed with IDBS XLFit and GraphPad Prism 5.0 software using a three or four parameter dose response curve to determine IC50 for each compound.
row,SMILES,IC50 [µM]
1,"CC(C)NCc1ccc(-n2cnc(-c3nc(NC4CCN(S(C)(=O)=O)CC4)ncc3C(F)(F)F)c2)c(C#N)c1 [Example 340, 5-((Isopropylamino)methyl)-2-(4-(2-((1-(methylsulfonyl)piperidin-4-yl)amino)-5-(trifluoromethyl)pyrimidin-4-yl)-1H-imidazol-1-yl)benzonitrile]",≤ 0.05
2,"Cc1nc(-c2nc(NC3CCN(S(C)(=O)=O)CC3)ncc2C(F)(F)F)cn1-c1ccnc(C#N)c1F [Example 309, 3-Fluoro-4-(2-methyl-4-(2-((1-(methylsulfonyl)piperidin-4-yl)amino)-5-(trifluoromethyl)pyrimidin-4-yl)-1H-imidazol-1-yl)picolinonitrile]",≤ 0.05
3,"C[C@H]1CN(c2ccc(-n3cnc(-c4nc(NC5CCN(S(C)(=O)=O)CC5)ncc4C(F)(F)F)c3)c(Cl)c2)CCN1 [Example 140, (S)-4-(1-(2-Chloro-4-(3-methyl-piperazin-1-yl)-phenyl)-1H-imidazol-4-yl)-N-(1-(methyl-sulfonyl)piperidin-4-yl)-5-(trifluoro-methyl)pyrimidin-2-amine]",≤ 0.05
4,"CCN1CCN(Cc2ccc(-n3cnc(-c4nc(N[C@@H]5CCN(S(C)(=O)=O)C[C@H]5F)ncc4C(F)(F)F)c3)c(Cl)c2)CC1 [Example 398, 4-(1-(2-Chloro-4-((4-ethylpiperazin-1-yl)methyl)phenyl)-1H-imidazol-4-yl)-N-((3R,4R)-3-fluoro-1-(methylsulfonyl)piperidin-4-yl)-5-(trifluoromethyl)pyrimidin-2-amine]",≤ 0.05
5,"Cn1cncc1-c1ccc(-n2cnc(-c3nc(NC4CCN(S(C)(=O)=O)CC4)ncc3C(F)(F)F)c2)c(Cl)c1 [Example 124, 4-(1-(2-Chloro-4-(1-methyl-1H-imidazol-5-yl)phenyl)-1H-imidazol-4-yl)-N-(1-(methylsulfonyl)-piperidin-4-yl)-5-(trifluoromethyl)-pyrimidin-2-amine]",≤ 0.05
6,"C[C@@H]1CN(S(=O)(=O)C2CC2)CC[C@@H]1Nc1ncc(C(F)(F)F)c(-c2cn(CC(C)(C)O)cn2)n1 [Example 332, 1-(4-(2-(((3R,4S)-1-(Cyclopropylsulfonyl)-3-methylpiperidin-4-yl)amino)-5-(trifluoromethyl)pyrimidin-4-yl)-1H-imidazol-1-yl)-2-methylpropan-2-ol]",≤ 0.05
7,"CS(=O)(=O)N1CC[C@H](Nc2ncc(C(F)(F)F)c(-c3cn(-c4ccnc(C#N)c4Cl)cn3)n2)[C@H](F)C1 [Example 308, 3-Chloro-4-(4-(2-(((3R,4S)-3-fluoro-1-(methylsulfonyl)piperidin-4-yl)amino)-5-(trifluoromethyl)pyrimidin-4-yl)-1H-imidazol-1-yl)picolinonitrile]",≤ 0.05
8,"Cc1nc(-c2nc(NC3CCN(S(C)(=O)=O)CC3)ncc2C(F)(F)F)cn1-c1ccc(N2CCC(C)(N3CCCC3)CC2)cc1F [Example 414, 4-(1-(2-Fluoro-4-(4-methyl-4-(pyrrolidin-1-yl)piperidin-1-yl)phenyl)-2-methyl-1H-imidazol-4-yl)-N-(1-(methylsulfonyl)piperidin-4-yl)-5-(trifluoromethyl)pyrimidin-2-amine]",≤ 0.05
9,"Cc1nc(-c2nc(NC3CCN(S(C)(=O)=O)CC3)ncc2C(F)(F)F)cn1-c1ccc(N(C)CCO)cc1F [Example 113, 2-((3-Fluoro-4-(2-methyl-4-(2-((1-(methyl-sulfonyl)piperidin-4-yl)amino)-5-(trifluoromethyl)-pyrimidin-4-yl)-1H-imidazol-1-yl)phenyl)(methyl)-amino)ethan-1-ol]",≤ 0.05
10,"CS(=O)(=O)N1CCC(Nc2ncc(C(F)(F)F)c(-c3cn(-c4ccc(Cn5ccnc5)cc4Cl)cn3)n2)CC1 [Example 238, 4-(1-(4-((H-Imidazol-1-yl)methyl)-2-chlorophenyl)-1H-imidazol-4-yl)-N-(1-(methylsulfonyl)piperidin-4-yl)-5-(trifluoromethyl)pyrimidin-2-amine]",≤ 0.05
11,"Cc1nc(-c2nc(NC3CCN(S(C)(=O)=O)CC3)ncc2C(F)(F)F)cn1-c1cccc(C#N)c1F [Example 304, 2-Fluoro-3-(2-methyl-4-(2-((1-(methylsulfonyl)piperidin-4-yl)amino)-5-(trifluoromethyl)pyrimidin-4-yl)-1H-imidazol-1-yl)benzonitrile]",≤ 0.05
12,"CS(=O)(=O)N1CCC(Nc2ncc(C(F)(F)F)c(-c3cn(-c4cc(F)ccc4C#N)cn3)n2)CC1 [Example 57, 4-Fluoro-2-(4-(2-((1-(methylsulfonyl)piperidin-4-yl)amino)-5-(trifluoromethyl)pyrimidin-4-yl)-1H-imidazol-1-yl)benzonitrile]",≤ 0.05
13,"CC(=O)Nc1nccc(-n2cnc(-c3nc(NC4CCN(S(=O)(=O)c5cn(C)cn5)CC4)ncc3C(F)(F)F)c2)c1C [Example 8, N-(3-Methyl-4-(4-(2-((1-((1-methyl-1H-imidazol-4-yl)sulfonyl)piperidin-4-yl)amino)-5-(trifluoromethyl)pyrimidin-4-yl)-1H-imidazol-1-yl)pyridin-2-yl)acetamide]",≤ 0.05
14,"CNc1nccc(-n2cnc(-c3nc(NC4CCN(S(C)(=O)=O)CC4)ncc3C(F)(F)F)c2)c1Cl [Example 322, 4-(1-(3-Chloro-2-(methylamino)pyridin-4-yl)-1H-imidazol-4-yl)-N-(1-(methylsulfonyl)piperidin-4-yl)-5-(trifluoromethyl)pyrimidin-2-amine]",≤ 0.05
15,"CS(=O)(=O)N1CCC(Nc2ncc(C(F)(F)F)c(-c3cn(-c4ccc(CN5CC(O)C5)cc4Cl)cn3)n2)CC1 [Example 199, 1-(3-Chloro-4-(4-(2-((1-(methylsulfonyl)-piperidin-4-yl)amino)-5-(trifluoromethyl)-pyrimidin-4-yl)-1H-imidazol-1-yl)benzyl)-azetidin-3-ol]",≤ 0.05

# Now from value to molecule:
row,IC50 [µM],SMILES
1,≤ 0.05,"COC1CN(Cc2ccc(-n3cnc(-c4nc(NC5CCN(S(C)(=O)=O)CC5)ncc4C(F)(F)F)c3)c(Cl)c2)C1 [Example 195, 4-(1-(2-Chloro-4-((3-methoxyazetidin-1-yl)methyl)phenyl)-1H-imidazol-4-yl)-N-(1-(methylsulfonyl)-piperidin-4-yl)-5-(trifluoromethyl)-pyrimidin-2-amine]"
2,≤ 0.05,"CS(=O)(=O)N1CCC(Nc2ncc(C(F)(F)F)c(-c3cn(-c4cnccc4C(F)(F)F)cn3)n2)CC1 [Example 66, N-(1-(Methylsulfonyl)piperidin-4-yl)-5-(trifluoromethyl)-4-(1-(4-(trifluoromethyl)pyridin-3-yl)-1H-imidazol-4-yl)pyrimidin-2-amine]"
3,≤ 0.05,"CN1CCN(Cc2cccc(-n3cnc(-c4nc(NC5CCN(S(C)(=O)=O)CC5)ncc4C(F)(F)F)c3)c2Cl)CC1 [Example 78, 4-(1-(2-Chloro-3-((4-methylpiperazin-1-yl)methyl)phenyl)-1H-imidazol-4-yl)-N-(1-(methylsulfonyl)piperidin-4-yl)-5-(trifluoromethyl)pyrimidin-2-amine]"
4,≤ 0.05,CS(=O)(=O)N1CCC(Nc2ncc(C(F)(F)F)c(-c3cn(-c4ccc(CN5CC[C@@H](O)C5)cc4Cl)cn3)n2)CC1 [Example 205]
5,≤ 0.05,"CS(=O)(=O)N1CCC(Nc2ncc(C(F)(F)F)c(-c3ncn(-c4ccc(C#N)cc4Cl)c3Cl)n2)CC1 [Example 170, 3-Chloro-4-(5-chloro-4-(2-((1-(methylsulfonyl)piperidin-4-yl)amino)-5-(trifluoromethyl)pyrimidin-4-yl)-1H-imidazol-1-yl)benzonitrile]"
6,≤ 0.05,"CS(=O)(=O)N1CCC(Nc2ncc(C(F)(F)F)c(-c3cn(-c4ccc(CN5CCC5)cc4C(F)(F)F)cn3)n2)CC1 [Example 251, 4-(1-(4-(Azetidin-1-ylmethyl)-2-(trifluoromethyl)phenyl)-1H-imidazol-4-yl)-N-(1-(methylsulfonyl)piperidin-4-yl)-5-(trifluoromethyl)pyrimidin-2-amine]"
7,≤ 0.05,"CCc1ccc(-n2cnc(-c3nc(NC4CCN(S(C)(=O)=O)CC4)ncc3C(F)(F)F)c2)c(C(F)(F)F)n1 [Example 95, 4-(1-(6-Ethyl-2-(trifluoromethyl)pyridin-3-yl)-1H-imidazol-4-yl)-N-(1-(methylsulfonyl)piperidin-4-yl)-5-(trifluoromethyl) pyrimidin-2-amine]"
8,≤ 0.05,"Cc1ncn(C)c1-c1ccc(-n2cnc(-c3nc(NC4CCN(S(C)(=O)=O)CC4)ncc3C(F)(F)F)c2)c(Cl)c1 [Example 123, 4-(1-(2-Chloro-4-(1,4-dimethyl-1H-imidazol-5-yl)phenyl)-1H-imidazol-4-yl)-N-(1-(methylsulfonyl)-piperidin-4-yl)-5-(trifluoromethyl)-pyrimidin-2-amine]"
9,≤ 0.05,"Cc1cc(CN2CCC2)ccc1-n1cc(-c2nc(NC3CCN(S(C)(=O)=O)CC3)ncc2C(F)(F)F)nc1C [Example 285, 4-(1-(4-(Azetidin-1-ylmethyl)-2-methylphenyl)-2-methyl-1H-imidazol-4-yl)-N-(1-(methylsulfonyl)piperidin-4-yl)-5-(trifluoromethyl)pyrimidin-2-amine]"
10,≤ 0.05,Cc1nc(-c2nc(N[C@H]3CCN(S(C)(=O)=O)C[C@H]3F)ncc2C(F)(F)F)cn1-c1ccc(CNC2CC2)cc1F [Example 408]
11,≤ 0.05,"CS(=O)(=O)N1CCC(Nc2ncc(C(F)(F)F)c(-c3cn(-c4ccc5cccnc5c4Br)cn3)n2)CC1 [Example 163, 4-(1-(8-Bromoquinolin-7-yl)-1H-imidazol-4-yl)-N-(1-(methyl-sulfonyl)piperidin-4-yl)-5-(trifluoromethyl)-pyrimidin-2-amine]"
12,≤ 0.05,"CNCc1ccc(-n2cnc(-c3nc(N[C@@H]4CCN(S(C)(=O)=O)C[C@H]4F)ncc3C(F)(F)F)c2)c(Cl)c1 [Example 225, 4-(1-(2-Chloro-4-((methylamino)-methyl)phenyl)-1H-imidazol-4-yl)-N-((3R,4R)-3-fluoro-1-(methylsulfonyl)-piperidin-4-yl)-5-(trifluoromethyl)-pyrimidin-2-amine]"
13,≤ 0.05,"COc1ccc(-n2cnc(-c3nc(NC4CCN(S(C)(=O)=O)CC4)ncc3C(F)(F)F)c2)c(C#N)n1 [Example 39, 6-Methoxy-3-(4-(2-((1-(methylsulfonyl)piperidin-4-yl)amino)-5-(trifluoromethyl)pyrimidin-4-yl)-1H-imidazol-1-yl)picolinonitrile]"
